Results reported in the supplement of paper PMC6045584.
± gives the standard deviation of the averaged measurements.

Key:
ABIRATERONE = compound: C[C@]12CC[C@H](O)CC1=CC[C@@H]1[C@@H]2CC[C@]2(C)C(c3cccnc3)=CC[C@@H]12 [ABIRATERONE]; assay: surviving fraction relative to DMSO-only wells; higher = less growth inhibition; conditions: exposure time: 5 days
Procedure, shortened: (§1)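 Viability values are CellTiter-Glo luminescence readings, given as surviving fraction against the median of DMSO-only wells. The readings were taken after 10 minutes at room temperature, following five days of continuous exposure to inhibitors at 0.5, 1, 5, 10, 50, 100, 500 and 1000 nM that began 24 hours after log-phase tumour cell lines were seeded at 250–500 cells per well in 384-well plates. Every line was screened three times and kept only if replicate Pearson r >0.7 and median Z' >0.3.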

MLN-4924 = compound: NS(=O)(=O)OC[C@@H]1C[C@@H](n2ccc3c(N[C@H]4CCc5ccccc54)ncnc32)C[C@@H]1O [MLN-4924]; assay: as above; conditions: exposure time: 5 days
Procedure, shortened: as §1

| Test System | surviving fraction (ABIRATERONE; 0.5 nM) | surviving fraction (ABIRATERONE; 1 nM) | surviving fraction (ABIRATERONE; 5 nM) | surviving fraction (ABIRATERONE; 10 nM) | surviving fraction (ABIRATERONE; 50 nM) | surviving fraction (ABIRATERONE; 100 nM) | surviving fraction (ABIRATERONE; 500 nM) | surviving fraction (ABIRATERONE; 1000 nM) | surviving fraction (MLN-4924; 0.5 nM) | surviving fraction (MLN-4924; 1 nM) | surviving fraction (MLN-4924; 5 nM) | surviving fraction (MLN-4924; 10 nM) | surviving fraction (MLN-4924; 50 nM) | surviving fraction (MLN-4924; 100 nM) | surviving fraction (MLN-4924; 500 nM) | surviving fraction (MLN-4924; 1000 nM) |
| --- | --- | --- | --- | --- | --- | --- | --- | --- | --- | --- | --- | --- | --- | --- | --- | --- |
| 22RV1 PROSTATE | 1.06 ± 0.047 | 1.09 ± 0.086 | 1.07 ± 0.062 | 1.09 ± 0.047 | 1.11 ± 0.029 | 1.09 ± 0.051 | 1.17 ± 0.067 | 1.08 ± 0.054 | 1.07 ± 0.05 | 0.967 ± 0.15 | 1.03 ± 0.12 | 0.81 ± 0.1 | 0.653 ± 0.048 | 0.47 ± 0.055 | 0.283 ± 0.058 | 0.26 ± 0.13 |
| 93VU HEADNECK | 1.2 ± 0.027 | 1.15 ± 0.12 | 1.12 ± 0.031 | 1.2 ± 0.024 | 1.32 ± 0.038 | 1.19 ± 0.056 | 1.17 ± 0.12 | 1.11 ± 0.12 | 1.01 ± 0.083 | 1.11 ± 0.068 | 1.09 ± 0.047 | 1.1 ± 0.051 | 0.828 ± 0.079 | 0.533 ± 0.034 | 0.166 ± 0.015 | 0.133 ± 0.0059 |
| 143B BONE | 1.04 ± 0.013 | 1.046 ± 0.005 | 1.05 ± 0.023 | 1.03 | 1.06 ± 0.035 | 1.07 ± 0.035 | 1.02 ± 0.012 | 1.01 ± 0.029 | 1.03 ± 0.023 | 1.01 ± 0.034 | 1.04 ± 0.033 | 1.018 ± 0.0099 | 0.961 ± 0.042 | 0.699 ± 0.028 | 0.062 ± 0.0042 | 0.033 ± 0.0028 |
| A549 LUNG | 1.04 ± 0.05 | 1.03 ± 0.059 | 1.05 ± 0.01 | 1.04 ± 0.045 | 1.1 ± 0.049 | 1.11 ± 0.019 | 1.08 ± 0.12 | 1.09 ± 0.087 | 1.061 ± 0.0093 | 1.05 ± 0.034 | 1.04 ± 0.023 | 1 ± 0.034 | 1.11 ± 0.041 | 1.1 ± 0.024 | 0.781 ± 0.011 | 0.417 ± 0.044 |
| ASKA SYNOVIAL | 1.19 ± 0.076 | 1.19 ± 0.11 | 1.23 ± 0.076 | 1.11 ± 0.11 | 1.2 ± 0.059 | 1.28 ± 0.069 | 1.19 ± 0.099 | 1.04 ± 0.1 | 1.11 ± 0.025 | 1.01 ± 0.02 | 1.08 ± 0.14 | 1.151 ± 0.011 | 0.946 ± 0.18 | 0.486 ± 0.08 | 0.33 ± 0.04 | 0.348 ± 0.019 |
| BT20 BREAST | 1.17 ± 0.082 | 1.04 ± 0.23 | 1.22 ± 0.11 | 1.21 ± 0.2 | 1.12 ± 0.23 | 1.14 ± 0.15 | 1.13 ± 0.16 | 1 ± 0.14 | 1.13 ± 0.042 | 1.168 ± 0.0072 | 1.13 ± 0.073 | 1.16 ± 0.1 | 1.2 ± 0.084 | 1.23 ± 0.18 | 0.989 ± 0.098 | 0.645 ± 0.044 |
| BT549 BREAST | 0.768 ± 0.079 | 1.07 ± 0.083 | 0.991 ± 0.012 | 1.02 ± 0.059 | 0.92 ± 0.067 | 1.15 ± 0.13 | 1.07 ± 0.038 | 1.2 ± 0.17 | 1.05 ± 0.043 | 1 ± 0.19 | 1.02 ± 0.064 | 0.957 ± 0.052 | 0.732 ± 0.14 | 0.575 ± 0.062 | 0.194 ± 0.067 | 0.148 ± 0.046 |
| C33A CERVIX | 1.19 ± 0.19 | 1.13 ± 0.059 | 1.19 ± 0.063 | 1.03 ± 0.022 | 1.12 ± 0.08 | 1.17 ± 0.068 | 1.2 ± 0.027 | 1.06 ± 0.13 | 0.905 ± 0.042 | 0.916 ± 0.093 | 0.929 ± 0.13 | 0.952 ± 0.11 | 0.542 ± 0.032 | 0.358 ± 0.027 | 0.132 ± 0.026 | 0.0803 ± 0.028 |
| CADOES1 SOFT TISSUE | 0.958 ± 0.12 | 1.03 ± 0.061 | 0.978 ± 0.11 | 0.943 ± 0.04 | 1 ± 0.025 | 1.11 ± 0.055 | 1.04 ± 0.14 | 0.955 ± 0.061 | 0.993 ± 0.094 | 0.97 ± 0.047 | 0.913 ± 0.052 | 0.787 ± 0.057 | 0.879 ± 0.057 | 0.812 ± 0.082 | 0.0993 ± 0.014 | 0.053 ± 0.007 |
| CAL51 BREAST | 0.988 ± 0.068 | 0.984 ± 0.019 | 1.03 ± 0.043 | 0.964 ± 0.039 | 1.02 ± 0.048 | 1.04 ± 0.044 | 1.02 ± 0.048 | 1.02 ± 0.028 | 1.01 ± 0.035 | 1.01 ± 0.045 | 1.06 ± 0.025 | 1.01 ± 0.051 | 0.922 ± 0.067 | 0.702 ± 0.085 | 0.2 ± 0.022 | 0.128 ± 0.012 |
| CAL72 BONE | 1.087 ± 0.0031 | 1.1 ± 0.023 | 1.09 ± 0.056 | 1.09 ± 0.043 | 1.16 ± 0.012 | 1.15 ± 0.019 | 1.13 ± 0.048 | 1.07 ± 0.027 | 1.02 ± 0.11 | 0.996 ± 0.12 | 1.02 ± 0.1 | 1.04 ± 0.068 | 1.1 ± 0.031 | 0.933 ± 0.085 | 0.299 ± 0.063 | 0.154 ± 0.042 |
| CAL120 BREAST | 0.954 ± 0.011 | 1 ± 0.015 | 1.01 ± 0.013 | 1.01 ± 0.011 | 1.04 ± 0.059 | 1.04 ± 0.041 | 1.05 ± 0.028 | 0.988 ± 0.037 | 0.961 ± 0.064 | 0.963 ± 0.028 | 0.952 ± 0.06 | 0.889 ± 0.068 | 0.667 ± 0.057 | 0.482 ± 0.036 | 0.14 ± 0.0021 | 0.121 ± 0.0033 |
| CASKI CERVIX | 0.924 ± 0.015 | 0.884 ± 0.044 | 1.04 ± 0.1 | 1.03 ± 0.018 | 1.08 ± 0.027 | 1.1 ± 0.014 | 1.09 ± 0.032 | 1.11 ± 0.05 | 0.955 ± 0.033 | 0.961 ± 0.028 | 1.04 ± 0.084 | 1.03 ± 0.082 | 0.507 ± 0.017 | 0.301 ± 0.016 | 0.168 ± 0.013 | 0.153 ± 0.0032 |
| CHLA90 AUTONOMIC GANGLIA | 1.01 ± 0.064 | 1.07 ± 0.043 | 1.06 ± 0.023 | 1.05 ± 0.044 | 1.05 ± 0.052 | 0.993 ± 0.096 | 1.08 ± 0.017 | 1.09 ± 0.05 | 1.006 ± 0.0078 | 0.969 ± 0.05 | 0.984 ± 0.062 | 1.03 ± 0.019 | 1.2 ± 0.065 | 0.993 ± 0.028 | 0.697 ± 0.13 | 0.525 ± 0.041 |
| CME SYNOVIAL | 1.28 ± 0.1 | 1.38 ± 0.15 | 1.43 ± 0.15 | 1.29 ± 0.086 | 1.37 ± 0.17 | 1.37 ± 0.029 | 1.34 ± 0.18 | 1.2 ± 0.18 | 1.19 ± 0.11 | 1.25 ± 0.15 | 1.32 ± 0.19 | 1.27 ± 0.07 | 0.692 ± 0.1 | 0.271 ± 0.026 | 0.273 ± 0.019 | 0.304 ± 0.023 |
| COLO320DM LARGE INTESTINE | 1.13 ± 0.084 | 1.09 ± 0.033 | 1.11 ± 0.07 | 1.17 ± 0.057 | 1.26 ± 0.19 | 1.1 ± 0.062 | 1.2 ± 0.38 | 1.02 ± 0.027 | 1.1 ± 0.026 | 1.21 ± 0.045 | 1.14 ± 0.12 | 1.15 ± 0.1 | 1.06 ± 0.043 | 0.996 ± 0.03 | 0.803 ± 0.11 | 0.693 ± 0.03 |
